Residues, ends and D or L forms follow the SMILES beside them.
Experiments:
[1] = target: T1, p103 (rat dipeptidyl peptidase IV, DPP4) (Rattus norvegicus, UniProt P14740); experiment: Bond of Leu8-MAP to leucine binding protein p103 on the hepatocyte membrane, competition by free amino acids; settings: excess free amino acid
T1 construct: from tissue; host or cells: rat hepatocyte membrane
Excerpt: In order to solve the above problems, the inventors attempted to identify leucine binding protein that exists on the membrane of rat hepatic cells by using a membrane-impermeable leucine derivative (Leu8-MAP). As a result of the thorough search, they found a molecular weight of 103-kilodalton leucine-specific binding protein (p103) on the hepatocyte membrane. Though the bond of Leu8-MAP to p103 was inhibited by excess free leucine, it was not inhibited by isoleucine or valine. Therefore, p103 was protein that selectively bonds to leucine. Further, as a result of various examinations on the condition for purifying p103 from the hepatocyte membrane, they succeeded in isolating the above protein by purification and detected it as a single band protein by SDS-PAGE electrophoresis. This band was cleaved from the gel, and peptide fragmentation was conducted thereto by the in-gel reduction/alkylation and the enzyme digestion. Then, the mass spectrometry was conducted by providing the fragment with the equipment wherein a nanoHPLC system (Ultimate: Nippon Dionex K.K.) was connected to an ion trap mass spectrometer (LCQ: Thermo Electron Co., Ltd.). The obtained data was identified with a database search system (Mascot: Matrix Science, Ltd.). MSDB (Jan. 6, 2004 ver. by Matrix Science, Ltd.) was used as the sequence database for search. As a result, rat dipeptidyl peptidase IV (DPP4: EC 3.4.14.5) could be identified at a high score.

[2] = target: T2, recombinant human dipeptidyl peptidase IV (rhDpp4) (Homo sapiens, UniProt P27487); experiment: Inhibiting activity against rhDpp4 (G-P-pNA cleavage, absorbance at 405 nm); type: biochemical
T2 construct: purchased R&D Systems 1180-SE
Experimental: The inhibiting activity of each test compound was determined against the cleaving activity of GLY-PRO-p-nitroanihde (G-P-pNA, by Sigma, #G-0513), which is a synthetic substrate of recombinant human dipeptidyl peptidase IV (rhDpp4, by R&D Systems, #1180-SE). G-P-pNA was cleaved between PRO and pNA by rhDpp4. Since pNA is absorbed at 405 nm, the value thereof was measured to determine the cleavage amount.
The reaction solution (25 mM Tris (pH8.0), 100 uM G-P-pNA, 0.25 ng/ul rhDPP4) was prepared and added to the test compound so that the final concentration of the test compound became 2 mM (1% DMSO concentration). The reaction solution was kept in 37° C. for 30 minutes. After that, the absorbance at 405 nm was measured at once by a spectrophotometer. The reaction was conducted in 200 ul scale with a 96-well microplate.
At the same time, the absorbance at 405 nm of each 100, 33, 11, 3.7, 1.2, 0.41, and 0.14 uM pNA solution was measured to obtain the relational formula of pNA concentration and absorbance, and the pNA amount (the substrate cleavage amount) in each reaction solution was calculated.
As for the inhibition rate, 3 to 4 wells without the test compound were prepared in the same plate. Then, the inhibition rate was calculated and shown in percentage by using the following formula from the proportion of the substrate cleavage amount (B) of the well to which each test compound was added to the average amount (A) of the substrate cleavage amount of the well without the test compound.
Inhibition rate (%)=100×(1−(B)/(A))

rat hepatic cells = experiment: Measurement of autophagy (proteolysis, valine release) by using rat hepatic cells; type: cell-based
Experimental: Male Wistar rats of 140 to 180 g which were freely fed were used to prepare rat hepatic cells by the collagenase perfusion method (Seglen, P.O. Preparation of isolated liver cells. (1976) In Methods in Cell Biology eds. D. M. Prescott, 13, 29-83. Academic: New York/London). By this method, 2 to 2.5×10^8 cells of the hepatic cells per one individual's […] could be prepared.
The protein decomposition (autophagy) of the prepared hepatic cells was determined by the method of Venerando, et al. Namely, the hepatic cells were put in a 10 mL flask with 3.5 mL of KRB buffer (24 mM bicarbonate, 6 mM glucose) to prepare a cell suspension (1 to 1.2×10^6 cells/mL). The solution was kept and left in 37° C. for 45 minutes in a carbon dioxide incubator. Then, various chemical treatments were conducted under the existence of 20 uM cycloheximide in order to stop the protein synthesis, and the solution was kept at 37° C. for […]. At each 31 minutes and 42 minutes, 0.35 mL of the hepatic cell suspension was taken out, and a perchloric acid cooled with ice (final concentration 6%) was added to the latter and preserved at −20° C. Valine in the supernatant of the acid-soluble fraction was measured, and valine release for 11 minutes was determined. […]

T1 sequence (P14740 whole entry): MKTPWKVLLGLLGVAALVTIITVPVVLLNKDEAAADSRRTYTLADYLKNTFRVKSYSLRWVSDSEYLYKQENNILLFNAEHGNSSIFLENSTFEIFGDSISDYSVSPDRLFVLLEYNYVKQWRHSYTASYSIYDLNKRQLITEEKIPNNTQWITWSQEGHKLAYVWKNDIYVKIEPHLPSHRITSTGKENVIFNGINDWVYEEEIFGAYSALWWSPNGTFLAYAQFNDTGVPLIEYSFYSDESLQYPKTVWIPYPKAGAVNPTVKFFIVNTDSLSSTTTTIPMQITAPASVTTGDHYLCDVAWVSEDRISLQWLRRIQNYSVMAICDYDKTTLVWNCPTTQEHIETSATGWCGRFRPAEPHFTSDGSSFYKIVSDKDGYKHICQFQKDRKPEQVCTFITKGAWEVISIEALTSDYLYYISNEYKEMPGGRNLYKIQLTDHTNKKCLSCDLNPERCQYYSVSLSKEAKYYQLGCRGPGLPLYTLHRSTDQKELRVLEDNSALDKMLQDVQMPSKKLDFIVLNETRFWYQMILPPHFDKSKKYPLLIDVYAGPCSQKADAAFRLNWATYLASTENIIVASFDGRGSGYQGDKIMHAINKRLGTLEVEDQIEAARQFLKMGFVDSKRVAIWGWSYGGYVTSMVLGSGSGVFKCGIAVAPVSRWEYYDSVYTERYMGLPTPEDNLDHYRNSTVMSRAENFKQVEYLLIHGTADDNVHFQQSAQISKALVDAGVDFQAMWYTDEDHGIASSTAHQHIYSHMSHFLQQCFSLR
T2 sequence (P27487 whole entry): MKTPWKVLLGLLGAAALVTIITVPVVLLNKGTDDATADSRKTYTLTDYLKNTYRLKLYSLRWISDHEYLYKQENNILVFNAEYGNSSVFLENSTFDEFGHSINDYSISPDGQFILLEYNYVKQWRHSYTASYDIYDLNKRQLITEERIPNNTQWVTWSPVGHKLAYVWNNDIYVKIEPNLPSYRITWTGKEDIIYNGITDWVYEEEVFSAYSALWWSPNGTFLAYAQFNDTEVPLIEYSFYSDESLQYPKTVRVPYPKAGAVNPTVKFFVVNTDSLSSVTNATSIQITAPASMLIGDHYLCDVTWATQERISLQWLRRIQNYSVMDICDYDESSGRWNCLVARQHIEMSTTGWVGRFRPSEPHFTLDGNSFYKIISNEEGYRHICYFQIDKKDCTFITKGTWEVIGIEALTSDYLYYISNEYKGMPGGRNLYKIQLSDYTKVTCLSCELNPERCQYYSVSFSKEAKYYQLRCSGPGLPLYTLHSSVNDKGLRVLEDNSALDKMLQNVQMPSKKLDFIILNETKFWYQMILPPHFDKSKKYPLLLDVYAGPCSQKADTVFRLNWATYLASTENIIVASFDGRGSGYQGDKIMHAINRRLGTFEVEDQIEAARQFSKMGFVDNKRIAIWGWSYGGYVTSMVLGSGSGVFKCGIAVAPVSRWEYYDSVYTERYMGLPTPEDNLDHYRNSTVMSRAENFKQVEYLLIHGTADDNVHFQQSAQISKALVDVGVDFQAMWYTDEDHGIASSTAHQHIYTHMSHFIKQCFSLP

| inhibition of the bond of Leu8-MAP to p103, in words [1] | Dpp4 inhibiting activity among 20 kinds of amino acids (FIG. 2, substrate cleavage rate), in words [2] | SMILES | other results |
| --- | --- | --- | --- |
| not inhibited | – | CC(C)[C@H](N)C(=O)O [valine] | – |
| inhibited | has the Dpp4 inhibiting activity | CC(C)C[C@H](N)C(=O)O [Leucine, L-leucine] | concentration-dependent Dpp4 inhibiting activity (FIG. 1), in words ([2]; FIG. 1): inhibits Dpp4; effect on autophagy induced by amino acid starvation, in words (rat hepatic cells): strongly inhibits autophagy; Inhibition of proteolysis (%) (rat hepatic cells; starvation induced proteolysis, 20 uM cycloheximide, valine release for 11 minutes): 27.9% |
| not inhibited | – | CC[C@H](C)[C@H](N)C(=O)O [isoleucine] | – |
| – | has the Dpp4 inhibiting activity | CSCC[C@H](N)C(=O)O [Met, L-methionine] | – |
| – | – | CC(C)C[C@H](NC(=O)[C@@H](N)CCCCN)C(=O)O [R1=L-Lys, R2=OH, Lys-Leu] (H-Lys-Leu-OH) | Inhibition rate (%) ([2]; test compound 2 mM, 100 uM G-P-pNA, 0.25 ng/ul rhDPP4, 37° C. for 30 minutes): 38.4% |
